Where a name gives a salt, the structure may show the parent alone.
How the values were obtained:
NLRP3 [1] = molecular target: T1, NLRP3 (Homo sapiens, UniProt Q96P20); experiment: THP-1 cells pyroptosis assay; assay type: cell-based; design: Seed THP-1 cells (25,000cells/well) containing 1.0 μg/ml LPS in 40 μl of RPMI medium; host or cells: THP-1 cells; conditions: LPS 1 μg/ml, nigericin 5 μM, resazurin readout
Description: The cells were routinely passaged and grown to confluency (˜10^6 cells/ml). On the day of the experiment, THP-1 cells were harvested and resuspended into RPMI medium (without FBS). The cells were then counted and viability (>90%) checked by Trypan blue (Sigma #T8154). […] To this diluted cell solution was added LPS (Sigma #L4524) to give a 1 μg/ml Final Assay Concentration (FAC). 40 μl of the final preparation was aliquoted into each well of a 96-well plate. The plate thus prepared was used for compound screening.
The following method step-by-step assay was followed for compound screening. • 1. […] Incubate for 3 hrs at 37° C., 5% CO2 • 4. Add 5 μl nigericin (Sigma #N7143) (FAC 5 μM) to all wells • 5. Incubate for 1 hr at 37° C., 5% CO2 • 6. At the end of the incubation period, spin plates at 300×g for 3 mins and remove supernatant • 7. Then add 50 μl of resazurin (Sigma #R7017) (FAC 100 μM resazurin in RPMI medium without FBS) and incubate plates for a further 1-2 hrs at 37° C. and 5% CO2 • 8. […] IC50 data is fitted to a non-linear regression equation (log inhibitor vs response-variable slope 4-parameters)

NLRP3 [2] = molecular target: T1, NLRP3; experiment: Human whole blood IL-1β release assay; assay type: cell-based; design: Human whole blood in Li-heparin tubes was obtained from healthy donors from a volunteer donor panel; from tissue; host or cells: human whole blood from healthy donors; conditions: LPS 1 μg/ml, nigericin 10 μM, IL-1β AlphaLisa, read-out: HWB IC50
Description: For systemic delivery, the ability to inhibit NLRP3 when the compounds are present within the bloodstream is of great importance. For this reason, the NLRP3 inhibitory activity of a number of compounds in human whole blood was investigated in accordance with the following protocol.
Human whole blood in Li-heparin tubes was obtained from healthy donors from a volunteer donor panel. • 1. […] Incubate for 3 hrs at 37° C., 5% CO2 • 4. Add 10 μl nigericin (Sigma #N7143) (10 μM FAC) to all wells • 5. Incubate for 1 hr at 37° C., 5% CO2 • 6. At the end of the incubation period, spin plates at 300 ×g for 5 mins to pellet cells and remove 20 μl of supernatant and add to 96-well v-bottom plates for IL-1β analysis (note: these plates containing the supernatants can be stored at −80° C. to be analysed at a later date) • 7. IL-1β was measured according to the manufacturer protocol (Perkin Elmer-AlphaLisa IL-1 Kit AL220F-5000) • 8. IC50 data is fitted to a non-linear regression equation (log inhibitor vs response-variable slope 4-parameters)

T1 sequence (Q96P20 whole entry): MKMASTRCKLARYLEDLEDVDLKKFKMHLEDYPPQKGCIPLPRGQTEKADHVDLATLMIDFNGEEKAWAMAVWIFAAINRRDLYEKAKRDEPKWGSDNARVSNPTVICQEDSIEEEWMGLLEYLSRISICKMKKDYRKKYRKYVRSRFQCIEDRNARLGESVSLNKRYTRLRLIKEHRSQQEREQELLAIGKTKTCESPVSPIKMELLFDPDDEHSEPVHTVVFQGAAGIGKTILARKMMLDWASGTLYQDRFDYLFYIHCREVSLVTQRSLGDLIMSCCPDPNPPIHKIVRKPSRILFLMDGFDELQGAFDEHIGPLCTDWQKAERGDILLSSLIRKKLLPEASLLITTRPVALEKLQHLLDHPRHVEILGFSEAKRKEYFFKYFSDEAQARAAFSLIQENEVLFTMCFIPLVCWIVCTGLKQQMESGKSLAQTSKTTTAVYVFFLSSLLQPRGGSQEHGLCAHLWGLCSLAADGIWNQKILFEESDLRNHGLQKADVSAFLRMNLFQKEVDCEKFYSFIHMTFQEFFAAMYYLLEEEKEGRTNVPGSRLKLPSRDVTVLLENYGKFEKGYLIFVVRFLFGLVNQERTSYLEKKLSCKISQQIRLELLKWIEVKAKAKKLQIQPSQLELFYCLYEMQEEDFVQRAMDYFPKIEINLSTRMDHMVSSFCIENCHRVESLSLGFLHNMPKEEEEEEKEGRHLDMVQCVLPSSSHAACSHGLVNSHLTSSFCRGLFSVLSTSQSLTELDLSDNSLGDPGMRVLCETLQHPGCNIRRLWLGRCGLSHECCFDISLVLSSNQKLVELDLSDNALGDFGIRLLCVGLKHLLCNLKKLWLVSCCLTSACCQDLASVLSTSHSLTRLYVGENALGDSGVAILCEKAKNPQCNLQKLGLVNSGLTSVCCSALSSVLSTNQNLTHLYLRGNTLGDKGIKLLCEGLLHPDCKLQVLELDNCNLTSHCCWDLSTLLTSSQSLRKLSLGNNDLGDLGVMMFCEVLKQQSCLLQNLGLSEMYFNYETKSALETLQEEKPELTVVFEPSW

| Compound | IC50 (NLRP3 [1]) | IC50 (NLRP3 [2]) |
| --- | --- | --- |
| COc1cc(-c2c(C3CC3)cc3c(c2NC(=O)NS(C)(=O)=O)CCC3)ccn1 [Example 34] | ≤ 250 nM | 1000 to 2000 nM |
| [2H]C([2H])([2H])Oc1cc(-c2c(C)c(F)cc(C(C)C)c2NC(=O)NS(C)(=O)=O)ccn1 [Example 8] | 250 to 500 nM | 500 to 1000 nM |
| Cc1cc2c(c(NC(=O)NS(C)(=O)=O)c1-c1ccnc(OC(F)F)c1)CCC2 [Example 3] | ≤ 250 nM | 500 to 1000 nM |
| COc1cc(-c2c(C)cc3c(c2NC(=O)NS(=O)(=O)C2CC2)CCC3)ccn1 [Example 12] | ≤ 250 nM | 500 to 1000 nM |
| COc1cc(-c2c(F)c(F)cc(C(C)C)c2NC(=O)NS(C)(=O)=O)ccn1 [Example 33] | 500 to 1000 nM | 1000 to 2000 nM |
| [2H]C([2H])([2H])Oc1cc(-c2c(C)cc3c(c2NC(=O)NS(C)(=O)=O)CCC3)ccn1 [Example 10] | ≤ 250 nM | 250 to 500 nM |
| Cc1cc2c(c(NC(=O)NS(C)(=O)=O)c1-c1ccnc(C#N)c1)CCC2 [Example 36] | 500 to 1000 nM | 500 to 1000 nM |
| COc1cc(-n2c(C)nc(C(C)C)c2NC(=O)NS(=O)(=O)c2cc(C(C)(C)O)co2)ccn1 [Example 48, 4-(2-Hydroxypropan-2-yl)-N-((4-isopropyl-1-(2-methoxypyridin-4-yl)-2-methyl-1H-imidazol-5-yl)carbamoyl)furan-2-sulfonamide] | 250 to 500 nM | 250 to 500 nM |
| CCOc1cc(-c2c(C)cc3c(c2NC(=O)NS(C)(=O)=O)CCC3)ccn1 [Example 5] | ≤ 250 nM | 250 to 500 nM |
| CCS(=O)(=O)NC(=O)Nc1c2c(cc(C)c1-c1ccnc(OC)c1)CCC2 [Example 42] | ≤ 250 nM | 250 to 500 nM |
| Cc1cc2c(c(NC(=O)NS(=O)(=O)c3ccccc3)c1-c1ccnc(OC3CCN(C)CC3)c1)CCC2 [Example 19] | ≤ 250 nM | 500 to 1000 nM |
| Cc1cc2c(c(NC(=O)NS(=O)(=O)C3CC3)c1-c1ccnc(OC3CCN(C)CC3)c1)CCC2 [Example 21] | ≤ 250 nM | ≤ 250 nM |
| COc1cc(-c2c(C)c(F)cc(C(C)C)c2NC(=O)NS(C)(=O)=O)ccn1 [Example 7] | 250 to 500 nM | 500 to 1000 nM |
| COc1cc(-c2c(C)c(F)cc(C(C)C)c2NC(=O)NS(=O)(=O)c2ccn(C3CC3)n2)ccn1 [Example 29] | ≤ 250 nM | 1000 to 2000 nM |
| COc1cc(-c2c(C)cc3c(c2NC(=O)NS(C)(=O)=O)CCC3)ccn1 [Example 40, N-((5-(2-Methoxypyridin-4-yl)-6-methyl-2,3-dihydro-1H-inden-4-yl)carbamoyl)methanesulfonamide, sodium salt] | ≤ 250 nM | 250 to 500 nM |
| COCC(C)Oc1cc(-c2c(C)cc3c(c2NC(=O)NS(C)(=O)=O)CCC3)ccn1 (centres unmarked) [Example 25] | ≤ 250 nM | 250 to 500 nM |
| Cc1cc2c(c(NC(=O)NS(=O)(=O)N(C)C)c1-c1ccnc(OC3CCN(C)CC3)c1)CCC2 [Example 26] | ≤ 250 nM | ≤ 250 nM |
| Cc1cc2c(c(NC(=O)NS(=O)(=O)c3ccn(C(C)C)n3)c1-c1ccnc(OC3CCN(C)CC3)c1)CCC2 [Example 44] | ≤ 250 nM | 250 to 500 nM |

| Compound | IC50 (NLRP3 [1]) | IC50 (NLRP3 [2]) |
| --- | --- | --- |
| Cc1nc(C(C)C)c(NC(=O)NS(=O)(=O)c2ccn(C3CC3)n2)n1-c1ccncc1 [Example 47, 1-Cyclopropyl-N-((4-isopropyl-2-methyl-1-(pyridin-4-yl)-1H-imidazol-5-yl)carbamoyl)-1H-pyrazole-3-sulfonamide] | 250 to 500 nM | 250 to 500 nM |
| Cc1cc2c(c(NC(=O)NS(C)(=O)=O)c1-c1ccnc(O[C@H]3CC[C@@H](O)CC3)c1)CCC2 [Example 6] | ≤ 250 nM | ≤ 250 nM |
| COc1cc(-c2c(NC(=O)NS(C)(=O)=O)c(C(C)C)cc(F)c2C2CC2)ccn1 [Example 31] | 500 to 1000 nM | 1000 to 2000 nM |
| CCc1c(F)cc(C(C)C)c(NC(=O)NS(C)(=O)=O)c1-c1ccnc(OC)c1 [Example 38] | 250 to 500 nM | 1000 to 2000 nM |
| Cc1nc(C(C)C)c(NC(=O)NS(=O)(=O)N(C)C2CCN(C)C2)n1-c1ccncc1 (centres unmarked) [Example 49, 1-(5-Isopropyl-2-methyl-3-(4-pyridyl)imidazol-4-yl)-3-(methyl-(1-methylpyrrolidin-3-yl)sulfamoyl)urea] | 5000 to 10000 nM |  |
| Cc1cc2c(c(NC(=O)NS(C)(=O)=O)c1-c1ccnc(OC3CCN(C)CC3)c1)CCC2 [Example 28] | ≤ 250 nM | ≤ 250 nM |
| COc1cc(-c2c(C)cc3c(c2NC(=O)NS(=O)(=O)N(C)C)CCC3)ccn1 [Example 13] | ≤ 250 nM | 500 to 1000 nM |
| COc1cc(-c2c(C)cc3c(c2NC(=O)NS(=O)(=O)c2ccn(C4CC4)n2)CCC3)ccn1 [Example 35] | ≤ 250 nM | 500 to 1000 nM |
| Cc1cc2c(c(NC(=O)NS(=O)(=O)c3cc(C(C)(C)O)co3)c1-c1ccnc(OC3CCN(C)CC3)c1)CCC2 [Example 45] | ≤ 250 nM | 500 to 1000 nM |
| Cc1cc2c(c(NC(=O)NS(=O)(=O)C(C)(C)C)c1-c1ccnc(OC3CCN(C)CC3)c1)CCC2 [Example 18] | ≤ 250 nM | 2000 to 5000 nM |
| Cc1cc2c(c(NC(=O)NS(C)(=O)=O)c1-c1ccnc(OC3CC3)c1)CCC2 [Example 4] | ≤ 250 nM | 250 to 500 nM |
| COc1cc(-c2c(C)cc3c(c2NC(=O)NS(=O)(=O)c2ccccc2)CCC3)ccn1 [Example 11] | ≤ 250 nM | 1000 to 2000 nM |
| Cc1cc2c(c(NC(=O)NS(C)(=O)=O)c1-c1ccnc(OC3CCN(C)CC3)c1C)CCC2 [Example 20] | 250 to 500 nM | 250 to 500 nM |
| Cc1cc2c(c(NC(=O)NS(C)(=O)=O)c1-c1ccncc1)CCC2 [Example 2] | ≤ 250 nM | 250 to 500 nM |
| Cc1cc2c(c(NC(=O)NS(C)(=O)=O)c1-c1ccnc(OC3CCCCC3)c1)CCC2 [Example 16] | ≤ 250 nM | 1000 to 2000 nM |
| Cc1cc2c(c(NC(=O)NS(C)(=O)=O)c1-c1ccnc(OC3CCOCC3)c1)CCC2 [Example 22] | ≤ 250 nM | ≤ 250 nM |
| Cc1nc(C(C)C)c(NC(=O)NS(=O)(=O)c2cc(C(C)(C)O)co2)n1-c1ccncc1 [Example 46, 4-(2-Hydroxypropan-2-yl)-N-((4-isopropyl-2-methyl-1-(pyridin-4-yl)-1H-imidazol-5-yl)carbamoyl)furan-2-sulfonamide, ammonium salt] | ≤ 250 nM | ≤ 250 nM |
| Cc1cc(-c2c(C)cc3c(c2NC(=O)NS(C)(=O)=O)CCC3)ccn1 [Example 1, N-((6-Methyl-5-(2-methylpyridin-4-yl)-2,3-dihydro-1H-inden-4-yl)carbamoyl)methanesulfonamide] | 500 to 1000 nM | 500 to 1000 nM |
